# From patent US20210238173A1, “MITOGEN-ACTIVATED PROTEIN KINASE KINASE 7 INHIBITORS” (Yeda Research and Development Co. Ltd., priority 2018, published 2021)
# What was measured:
# NEK7 = NEK7 (Homo sapiens, UniProt Q8TDX7); assay: Kinome selectivity screen NEK7; format: biochemical; conditions: 1 μM compound
# Description: (§1) Kinome Selectivity Screen:
# (§2) Kinase selectivity was assessed using the Life Technologies SelectScreen Kinase Profiling Service in a custom panel of 76 kinases selected to provide broad representative coverage of all kinase families. Kinase activity assays employed either the Z′-LYTE or Adapta assay technologies with ATP concentrations at or near the KM, ATP for each kinase and a test compound concentration of 1 μM.
# MAP3K9 (MLK1) = MAP3K9 (MLK1) (Homo sapiens, UniProt P80192); assay: Kinome selectivity screen MAP3K9; format: biochemical; conditions: 1 μM compound
# Chain of MAP3K9 (MLK1) (P80192 whole entry): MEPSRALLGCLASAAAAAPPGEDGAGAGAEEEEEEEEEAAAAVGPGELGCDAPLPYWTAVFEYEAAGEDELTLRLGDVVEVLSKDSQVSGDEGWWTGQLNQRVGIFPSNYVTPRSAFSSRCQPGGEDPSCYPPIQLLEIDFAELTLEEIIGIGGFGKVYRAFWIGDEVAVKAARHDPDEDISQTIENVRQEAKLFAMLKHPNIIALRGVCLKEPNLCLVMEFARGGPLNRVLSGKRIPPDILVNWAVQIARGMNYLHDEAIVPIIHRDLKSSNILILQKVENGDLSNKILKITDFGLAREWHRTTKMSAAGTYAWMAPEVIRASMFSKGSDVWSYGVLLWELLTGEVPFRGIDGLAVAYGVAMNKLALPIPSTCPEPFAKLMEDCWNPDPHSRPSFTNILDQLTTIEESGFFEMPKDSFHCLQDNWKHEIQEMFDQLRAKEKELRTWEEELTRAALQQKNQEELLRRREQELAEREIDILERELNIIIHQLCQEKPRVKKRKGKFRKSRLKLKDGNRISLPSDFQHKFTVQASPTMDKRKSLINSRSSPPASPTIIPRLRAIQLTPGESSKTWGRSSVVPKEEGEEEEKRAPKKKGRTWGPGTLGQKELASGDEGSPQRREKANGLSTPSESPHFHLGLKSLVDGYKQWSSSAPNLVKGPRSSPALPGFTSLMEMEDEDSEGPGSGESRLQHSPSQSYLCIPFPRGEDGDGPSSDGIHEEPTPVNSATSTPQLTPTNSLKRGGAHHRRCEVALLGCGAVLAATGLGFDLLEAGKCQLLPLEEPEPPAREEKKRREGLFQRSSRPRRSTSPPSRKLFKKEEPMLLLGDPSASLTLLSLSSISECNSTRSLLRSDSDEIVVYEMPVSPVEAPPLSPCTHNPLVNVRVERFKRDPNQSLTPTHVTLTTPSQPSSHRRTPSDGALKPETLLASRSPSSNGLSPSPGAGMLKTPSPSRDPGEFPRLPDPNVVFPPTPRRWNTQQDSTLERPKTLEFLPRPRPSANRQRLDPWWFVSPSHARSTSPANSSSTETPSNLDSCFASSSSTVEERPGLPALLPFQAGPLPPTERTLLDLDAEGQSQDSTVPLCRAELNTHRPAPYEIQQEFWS
# Description: as §1, §2
# PIM2 = PIM2 (Homo sapiens, UniProt Q9P1W9); assay: Kinome selectivity screen PIM2; format: biochemical; conditions: 1 μM compound
# Description: as §1, §2
# CSNK2A1 (CK2 alpha 1) = CSNK2A1 (CK2 alpha 1) (Homo sapiens, UniProt P68400); assay: Kinome selectivity screen CSNK2A1; format: biochemical; conditions: 1 μM compound
# Description: as §1, §2
# CLK1 = CLK1 (Homo sapiens, UniProt P49759); assay: Kinome selectivity screen CLK1; format: biochemical; conditions: 1 μM compound
# Chain of CLK1 (P49759 whole entry): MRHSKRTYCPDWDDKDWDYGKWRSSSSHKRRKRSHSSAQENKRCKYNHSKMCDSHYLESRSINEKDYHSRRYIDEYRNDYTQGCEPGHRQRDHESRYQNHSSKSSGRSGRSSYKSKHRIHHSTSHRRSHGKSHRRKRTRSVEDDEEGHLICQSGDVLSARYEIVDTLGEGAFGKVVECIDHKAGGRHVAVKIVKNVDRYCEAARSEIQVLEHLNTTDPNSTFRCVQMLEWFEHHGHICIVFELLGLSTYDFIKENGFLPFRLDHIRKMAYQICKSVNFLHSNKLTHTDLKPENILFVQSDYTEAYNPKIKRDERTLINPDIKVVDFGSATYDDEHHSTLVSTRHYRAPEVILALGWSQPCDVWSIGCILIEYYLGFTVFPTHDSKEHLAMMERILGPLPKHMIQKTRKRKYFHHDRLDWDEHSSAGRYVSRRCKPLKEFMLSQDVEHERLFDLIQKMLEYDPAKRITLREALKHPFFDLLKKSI
# Description: as §1, §2
# SRC = SRC (Homo sapiens, UniProt P12931); assay: Kinome selectivity screen SRC; format: biochemical; conditions: 1 μM compound
# Description: as §1, §2
# ERBB2 (HER2) = ERBB2 (HER2) (Homo sapiens, UniProt P04626); assay: Kinome selectivity screen ERBB2; format: biochemical; conditions: 1 μM compound
# Description: as §1, §2
# DYRK3 = DYRK3 (Homo sapiens, UniProt O43781); assay: Kinome selectivity screen DYRK3; format: biochemical; conditions: 1 μM compound
# Description: as §1, §2
# DCAMKL2 (DCK2) = DCAMKL2 (DCK2) (Homo sapiens, UniProt Q8N568); assay: Kinome selectivity screen DCAMKL2; format: biochemical; conditions: 1 μM compound
# Description: as §1, §2
# EPHA2 = EPHA2 (Homo sapiens, UniProt P29317); assay: Kinome selectivity screen EPHA2; format: biochemical; conditions: 1 μM compound
# Description: as §1, §2
# ROCK2 = ROCK2 (Homo sapiens, UniProt O75116); assay: Kinome selectivity screen ROCK2; format: biochemical; conditions: 1 μM compound
# Description: as §1, §2
# FLT1 (VEGFR1) = FLT1 (VEGFR1) (Homo sapiens, UniProt P17948); assay: Kinome selectivity screen FLT1; format: biochemical; conditions: 1 μM compound
# Description: as §1, §2
# STK22D (TSSK1) = STK22D (TSSK1) (Homo sapiens, UniProt Q9BXA7); assay: Kinome selectivity screen STK22D; format: biochemical; conditions: 1 μM compound
# Description: as §1, §2
# LCK = LCK (Homo sapiens, UniProt P06239); assay: Kinome selectivity screen LCK; format: biochemical; conditions: 1 μM compound
# Description: as §1, §2
# ABL1 = ABL1 (Homo sapiens, UniProt P00519); assay: Kinome selectivity screen ABL1; format: biochemical; conditions: 1 μM compound
# Description: as §1, §2
# MAP4K5 (KHS1) = MAP4K5 (KHS1) (Homo sapiens, UniProt Q9Y4K4); assay: Kinome selectivity screen MAP4K5; format: biochemical; conditions: 1 μM compound
# Description: as §1, §2
# MAP2K4 (MEK4) = MAP2K4 (MEK4) (Homo sapiens, UniProt P45985); assay: Kinome selectivity screen MAP2K4; format: biochemical; conditions: 1 μM compound
# Description: as §1, §2
# TEK (Tie2) = TEK (Tie2) (Homo sapiens, UniProt Q02763); assay: Kinome selectivity screen TEK; format: biochemical; conditions: 1 μM compound
# Description: as §1, §2
# CDK1/cyclin B = CDK1/cyclin B (Homo sapiens, UniProt P06493); assay: Kinome selectivity screen CDK1/cyclin B; format: biochemical; conditions: 1 μM compound
# Description: as §1, §2
# IKBKB (IKK beta) = IKBKB (IKK beta) (Homo sapiens, UniProt O14920); assay: Kinome selectivity screen IKBKB; format: biochemical; conditions: 1 μM compound
# Description: as §1, §2
# FRAP1 (mTOR) = FRAP1 (mTOR) (Homo sapiens, UniProt P42345); assay: Kinome selectivity screen FRAP1; format: biochemical; conditions: 1 μM compound
# Description: as §1, §2
# PRKCD (PKC delta) = PRKCD (PKC delta) (Homo sapiens, UniProt Q05655); assay: Kinome selectivity screen PRKCD; format: biochemical; conditions: 1 μM compound
# Description: as §1, §2
# PKN1 (PRK1) = PKN1 (PRK1) (Homo sapiens, UniProt Q16512); assay: Kinome selectivity screen PKN1; format: biochemical; conditions: 1 μM compound
# Description: as §1, §2
# catalytic domain of MKK7 = biological target: T1, catalytic domain of MKK7 (Homo sapiens, UniProt O14733); assay: Activity based fluorescent labeling in bacterial lysate overexpressing MKK7; format: binding; conditions: pre-incubated with the lysate
# T1 construct: over-expressing MKK7 (103-426 residues); 6-His (C); made in house; host or cells: E. coli Rosetta2 BL21 (DE3), crude lysate
# T1 sequence (O14733 87-410): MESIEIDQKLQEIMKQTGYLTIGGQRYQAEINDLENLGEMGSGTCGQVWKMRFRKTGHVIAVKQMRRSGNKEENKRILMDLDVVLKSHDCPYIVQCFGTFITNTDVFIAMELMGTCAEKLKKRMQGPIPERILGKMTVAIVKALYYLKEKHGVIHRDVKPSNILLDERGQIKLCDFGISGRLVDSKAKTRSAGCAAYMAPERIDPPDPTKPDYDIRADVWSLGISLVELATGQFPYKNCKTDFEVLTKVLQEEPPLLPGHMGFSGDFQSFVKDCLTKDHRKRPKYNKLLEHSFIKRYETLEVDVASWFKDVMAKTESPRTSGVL
# GRK4 = GRK4 (Homo sapiens, UniProt P32298); assay: Kinome selectivity screen GRK4; format: biochemical; conditions: 1 μM compound
# Chain of GRK4 (P32298 whole entry): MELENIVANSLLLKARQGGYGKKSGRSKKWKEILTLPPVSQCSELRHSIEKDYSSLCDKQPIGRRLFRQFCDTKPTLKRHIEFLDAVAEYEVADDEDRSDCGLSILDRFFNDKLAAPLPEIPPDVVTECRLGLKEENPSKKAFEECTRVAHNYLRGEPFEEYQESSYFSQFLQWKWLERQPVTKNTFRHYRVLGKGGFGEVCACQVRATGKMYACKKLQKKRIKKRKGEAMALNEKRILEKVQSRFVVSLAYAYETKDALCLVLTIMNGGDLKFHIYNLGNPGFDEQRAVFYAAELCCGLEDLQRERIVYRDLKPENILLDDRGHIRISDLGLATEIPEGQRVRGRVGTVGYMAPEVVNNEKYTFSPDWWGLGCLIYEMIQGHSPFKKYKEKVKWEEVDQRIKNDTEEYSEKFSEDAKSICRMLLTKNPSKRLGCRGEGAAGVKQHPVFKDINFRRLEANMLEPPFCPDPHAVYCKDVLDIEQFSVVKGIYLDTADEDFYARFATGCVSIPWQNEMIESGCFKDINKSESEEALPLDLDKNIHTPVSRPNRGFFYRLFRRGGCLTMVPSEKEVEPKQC
# Description: as §1, §2
# PRKCB1 (PKC beta I) = PRKCB1 (PKC beta I) (Homo sapiens, UniProt P05771); assay: Kinome selectivity screen PRKCB1; format: biochemical; conditions: 1 μM compound
# Description: as §1, §2
# ROCK1 = ROCK1 (Homo sapiens, UniProt Q13464); assay: Kinome selectivity screen ROCK1; format: biochemical; conditions: 1 μM compound
# Description: as §1, §2
# [1] = biological target: PIK3CA/PIK3R1 (p110 alpha/p85 alpha) (Homo sapiens, UniProt P42336); assay: Kinome selectivity screen PIK3CA/PIK3R1; format: biochemical; conditions: 1 μM compound
# Chain of PIK3CA/PIK3R1 (p110 alpha/p85 alpha) (P42336 whole entry): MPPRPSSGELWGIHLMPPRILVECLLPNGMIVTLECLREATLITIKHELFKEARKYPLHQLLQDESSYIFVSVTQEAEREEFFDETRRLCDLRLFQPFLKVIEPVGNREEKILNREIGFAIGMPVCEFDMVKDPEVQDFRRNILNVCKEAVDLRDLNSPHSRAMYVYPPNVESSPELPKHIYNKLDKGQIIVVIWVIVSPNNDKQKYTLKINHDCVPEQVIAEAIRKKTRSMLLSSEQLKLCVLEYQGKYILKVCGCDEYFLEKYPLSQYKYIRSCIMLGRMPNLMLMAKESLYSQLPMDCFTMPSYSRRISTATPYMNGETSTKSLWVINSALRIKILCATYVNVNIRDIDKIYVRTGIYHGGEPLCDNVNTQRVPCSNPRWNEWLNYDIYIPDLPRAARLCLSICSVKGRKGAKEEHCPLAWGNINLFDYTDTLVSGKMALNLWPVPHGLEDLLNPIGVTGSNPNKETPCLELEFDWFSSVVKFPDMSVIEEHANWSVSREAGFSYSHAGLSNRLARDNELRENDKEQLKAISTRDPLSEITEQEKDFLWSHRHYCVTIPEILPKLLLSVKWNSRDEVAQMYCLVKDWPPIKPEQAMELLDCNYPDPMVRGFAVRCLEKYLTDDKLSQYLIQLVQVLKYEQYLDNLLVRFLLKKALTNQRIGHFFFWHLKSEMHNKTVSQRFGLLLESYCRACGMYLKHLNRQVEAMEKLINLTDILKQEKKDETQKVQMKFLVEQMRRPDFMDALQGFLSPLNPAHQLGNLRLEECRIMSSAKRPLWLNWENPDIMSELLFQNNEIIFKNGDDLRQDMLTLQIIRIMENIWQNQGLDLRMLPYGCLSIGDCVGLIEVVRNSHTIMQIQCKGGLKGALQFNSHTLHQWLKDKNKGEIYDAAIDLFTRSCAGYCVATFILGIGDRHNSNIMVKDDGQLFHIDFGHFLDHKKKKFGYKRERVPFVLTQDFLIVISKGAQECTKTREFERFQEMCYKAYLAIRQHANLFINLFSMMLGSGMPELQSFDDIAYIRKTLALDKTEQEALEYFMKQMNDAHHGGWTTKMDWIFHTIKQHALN
# Chain of PIK3CA/PIK3R1 (p110 alpha/p85 alpha) (P27986 whole entry partner): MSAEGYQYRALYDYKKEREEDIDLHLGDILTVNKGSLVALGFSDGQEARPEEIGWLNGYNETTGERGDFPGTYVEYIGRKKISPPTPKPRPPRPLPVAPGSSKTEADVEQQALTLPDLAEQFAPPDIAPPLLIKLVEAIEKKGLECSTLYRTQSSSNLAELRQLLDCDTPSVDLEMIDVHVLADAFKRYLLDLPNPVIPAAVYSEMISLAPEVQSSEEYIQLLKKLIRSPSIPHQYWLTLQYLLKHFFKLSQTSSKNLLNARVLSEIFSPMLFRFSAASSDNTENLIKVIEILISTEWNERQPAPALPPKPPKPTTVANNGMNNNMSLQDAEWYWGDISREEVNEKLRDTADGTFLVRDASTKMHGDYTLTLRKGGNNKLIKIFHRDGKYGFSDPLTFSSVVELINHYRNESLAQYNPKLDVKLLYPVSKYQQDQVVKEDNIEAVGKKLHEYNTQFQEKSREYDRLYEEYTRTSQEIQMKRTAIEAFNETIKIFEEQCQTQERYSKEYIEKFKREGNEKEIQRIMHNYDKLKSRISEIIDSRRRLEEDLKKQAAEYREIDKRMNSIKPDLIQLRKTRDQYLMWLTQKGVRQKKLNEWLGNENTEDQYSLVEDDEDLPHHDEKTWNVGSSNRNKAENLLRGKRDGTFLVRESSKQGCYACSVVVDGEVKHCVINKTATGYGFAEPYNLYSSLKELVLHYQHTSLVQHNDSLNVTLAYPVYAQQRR
# Description: as §1, §2
# AURKB (Aurora B) = AURKB (Aurora B) (Homo sapiens, UniProt Q96GD4); assay: Kinome selectivity screen AURKB; format: biochemical; conditions: 1 μM compound
# Chain of AURKB (Aurora B) (Q96GD4 whole entry): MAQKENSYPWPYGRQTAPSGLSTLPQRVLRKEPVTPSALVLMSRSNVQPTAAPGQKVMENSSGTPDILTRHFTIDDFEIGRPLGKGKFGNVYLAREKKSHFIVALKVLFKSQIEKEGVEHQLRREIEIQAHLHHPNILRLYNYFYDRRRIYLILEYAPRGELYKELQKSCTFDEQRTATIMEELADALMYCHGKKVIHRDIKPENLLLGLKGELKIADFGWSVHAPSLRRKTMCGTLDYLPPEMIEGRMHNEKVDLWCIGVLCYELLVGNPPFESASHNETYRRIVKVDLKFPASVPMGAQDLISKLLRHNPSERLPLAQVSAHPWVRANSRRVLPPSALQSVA
# Description: as §1, §2
# AURKA (Aurora A) = AURKA (Aurora A) (Homo sapiens, UniProt O14965); assay: Kinome selectivity screen AURKA; format: biochemical; conditions: 1 μM compound
# JNK activation = assay: KTR reporter live cell imaging of JNK activation; format: cell-based; conditions: Homo sapiens; HEK293 cells; read-out: EC50 of test and control compounds
# Excerpt: As an orthogonal assay for the ICW we used a KTR reporter cell line for JNK activation via live cell imaging.
# primary mouse B-cells = assay: Primary B-cell activation (CD86+ FACS) in response to LPS; format: cell-based; conditions: Mus musculus, B-cell, 10 μM, 2 hours pre-incubation
# Excerpt: Compounds Block Activation of Primary Mouse B-Cells:
# JNK is known to mediate activation of B-cells in response to lypopolysacharide (LPS) through the TLR4 signaling pathway as well as in response to B-cell receptor activation (stimulated e.g. with an anti-IgM antibody). Primary B-cells were isolated from the spleen of mice and assessed for their B-cell activation, via FACS analysis of CD86+ expression, in response to LPS in the presence or absence of the covalent MKK7 enzyme inhibitors presented herein, as well as a positive control JNK inhibitor, JNK-IN-8.
# At 10 μM and 2 hours pre-incubation before stimulation, GO80 was able to inhibit 60% of the CD86+ response.
# Chain of NEK7 (Q8TDX7 whole entry): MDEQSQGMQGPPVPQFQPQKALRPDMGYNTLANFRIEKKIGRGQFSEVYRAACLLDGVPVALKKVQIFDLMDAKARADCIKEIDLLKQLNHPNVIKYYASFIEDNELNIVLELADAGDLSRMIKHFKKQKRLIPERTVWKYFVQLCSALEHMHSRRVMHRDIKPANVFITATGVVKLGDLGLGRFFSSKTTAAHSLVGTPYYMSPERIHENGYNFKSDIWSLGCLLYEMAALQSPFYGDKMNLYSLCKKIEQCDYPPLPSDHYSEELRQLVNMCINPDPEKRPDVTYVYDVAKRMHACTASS
inhibition at 1 µM (NEK7) [%],inhibition at 1 µM (MAP3K9 (MLK1)) [%],inhibition at 1 µM (PIM2) [%],inhibition at 1 µM (CSNK2A1 (CK2 alpha 1)) [%],inhibition at 1 µM (CLK1) [%],inhibition at 1 µM (SRC) [%],inhibition at 1 µM (ERBB2 (HER2)) [%],inhibition at 1 µM (DYRK3) [%],inhibition at 1 µM (DCAMKL2 (DCK2)) [%],inhibition at 1 µM (EPHA2) [%],inhibition at 1 µM (ROCK2) [%],inhibition at 1 µM (FLT1 (VEGFR1)) [%],inhibition at 1 µM (STK22D (TSSK1)) [%],inhibition at 1 µM (LCK) [%],inhibition at 1 µM (ABL1) [%],inhibition at 1 µM (MAP4K5 (KHS1)) [%],inhibition at 1 µM (MAP2K4 (MEK4)) [%],inhibition at 1 µM (TEK (Tie2)) [%],inhibition at 1 µM (CDK1/cyclin B) [%],inhibition at 1 µM (IKBKB (IKK beta)) [%],Structure (SMILES),further results
8,37,-2,0,14,10,1,11,-2,-16,-2,-1,0,5,2,22,79,25,19,-3,C=CC(=O)Nc1cccc(-c2n[nH]c3ccccc23)c1 [GO32],inhibition at 1 µM (FRAP1 (mTOR)): -2%; inhibition at 1 µM (PRKCD (PKC delta)): 9%; inhibition at 1 µM (PKN1 (PRK1)): 4%; competition of PCM548 binding (catalytic domain of MKK7): able to compete PCM548 binding; inhibition at 1 µM (GRK4): -5%; inhibition at 1 µM (PRKCB1 (PKC beta I)): 1%; inhibition at 1 µM (ROCK1): -3%; inhibition at 1 µM [1]: -6%; inhibition at 1 µM (AURKB (Aurora B)): 79%
7,8,3,-2,2,-4,-1,22,-1,-13,-4,2,-1,5,1,-11,81,1,22,-5,C=CC(=O)Nc1cccc(-c2n[nH]c3cc(C)ccc23)c1 [GO80],inhibition at 1 µM (AURKA (Aurora A)): 4%; EC50 (JNK activation): 3.3 µM; inhibition at 1 µM (FRAP1 (mTOR)): -2%; inhibition at 1 µM (PRKCD (PKC delta)): 7%; inhibition at 1 µM (PKN1 (PRK1)): 1%; competition of PCM548 binding (catalytic domain of MKK7): able to compete PCM548 binding; inhibition at 1 µM (GRK4): -3%; inhibition at 1 µM (PRKCB1 (PKC beta I)): 5%; inhibition at 1 µM (ROCK1): 3%; inhibition at 10 µM (primary mouse B-cells): 60%; inhibition at 1 µM [1]: -19%; inhibition at 1 µM (AURKB (Aurora B)): 77%
